Literature values in patent publication US20160331866A1, “TISSUE REGENERATION MEMBRANE FOR REPAIR AND REGENERATION OF PERIPHERAL NERVE” (NATIONAL CHENG KUNG UNIVERSITY, priority 2015, published 2016).

Conditions: conventionally oral dose form

| Structure (SMILES) | concentration of the active ingredient in the blood |
| --- | --- |
| CC(C)(O)c1ccccc1CC[C@@H](SCC1(CC(=O)O)CC1)c1cccc(/C=C/c2ccc3ccc(Cl)cc3n2)c1 [Montelukast] | 20 ng/mL |
| COc1ccc2c(c1)c(CC(=O)O)c(C)n2C(=O)c1ccc(Cl)cc1 [Indomethacin] | 160 µM |
| CC(c1cc2ccccc2s1)N(O)C(N)=O (stereo not shown) [Zileuton] | 8.46 to 25.38 µM |
| CC(=O)Oc1ccccc1C(=O)O [aspirin, acetylsalicylic acid] | 832 to 1660 µM |
